In this assay the test system is nude mice, LX-1 lung xenograft intrarenal, tumor weight T/C. The experiment in a line: NCI In Vivo Anticancer Drug Screen. Data for tumor model Human Lung LX-1 Xenograft (intrarenal inoculation) in NU/NU Swiss (nude) mice. The note with it: endpoint: mean tumor weight change, higher = larger tumour. In short, it runs like this: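 Antitumor effect is expressed as a ratio: the mean tumor measurement of the drug-treated group relative to that of the vehicle-dosed control group.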

The mark [1] stands for this setting: dose: 300.0 mg/kg/injection, schedule: Q04DX003 (sc), vehicle: saline with Tween-80.
Where [2] appears, read: dose: 600.0 mg/kg/injection, schedule: Q04DX003 (sc), vehicle: saline with Tween-80.
[3] abbreviates: dose: 1200.0 mg/kg/injection, schedule: Q04DX003 (sc), vehicle: saline with Tween-80.
Setting [4] is: dose: 2400.0 mg/kg/injection, schedule: Q04DX003 (sc), vehicle: saline with Tween-80.
Setting [5] is: dose: 300.0 mg/kg/injection, schedule: Q04DX003 (sc), vehicle: Klucel (hydroxypropylcellulose) (HPC).
The mark [6] stands for this setting: dose: 600.0 mg/kg/injection, schedule: Q04DX003 (sc), vehicle: Klucel (hydroxypropylcellulose) (HPC).
Where [7] appears, read: dose: 1200.0 mg/kg/injection, schedule: Q04DX003 (sc), vehicle: Klucel (hydroxypropylcellulose) (HPC).
The mark [8] stands for this setting: dose: 2400.0 mg/kg/injection, schedule: Q04DX003 (sc), vehicle: Klucel (hydroxypropylcellulose) (HPC).
The mark [9] stands for this setting: dose: 200.0 mg/kg/injection, schedule: Q01DX010 (sc), vehicle: saline.
The mark [10] stands for this setting: dose: 12.5 mg/kg/injection, schedule: Q01DX010 (sc), vehicle: Klucel (hydroxypropylcellulose) (HPC).
Where [11] appears, read: dose: 25.0 mg/kg/injection, schedule: Q01DX010 (sc), vehicle: Klucel (hydroxypropylcellulose) (HPC).
The mark [12] stands for this setting: dose: 50.0 mg/kg/injection, schedule: Q01DX010 (sc), vehicle: saline.
The mark [13] stands for this setting: dose: 25.0 mg/kg/injection, schedule: Q04DX003 (sc), vehicle: saline.
The mark [14] stands for this setting: dose: 50.0 mg/kg/injection, schedule: Q04DX003 (sc), vehicle: saline.
The mark [15] stands for this setting: dose: 100.0 mg/kg/injection, schedule: Q04DX003 (sc), vehicle: saline.
The mark [16] stands for this setting: dose: 300.0 mg/kg/injection, schedule: Q04DX003 (sc), vehicle: suspension in saline.
Where [17] appears, read: dose: 600.0 mg/kg/injection, schedule: Q04DX003 (sc), vehicle: suspension in saline.
Where [18] appears, read: dose: 150.0 mg/kg/injection, schedule: Q04DX003 (sc), vehicle: saline with Tween-80.

“And” between values parts separate entries of the source, which are not always exact repeats. Equal entries are not always repeated. Records with an inconclusive call do not appear.

For `O=C1NC(=O)/C(=C/C=C/c2ccccc2)S1`, the T/C was 87 % of control under setting [1], 118 % of control under setting [2], 94 % of control under setting [3] and 62 % of control under setting [4].
As for `COc1cc(OC)c(OC)cc1/C=C\c1ccnc2ccccc12`, the T/C under setting [5] was 62 % of control, the T/C under setting [6] was 82 % of control, the T/C under setting [7] was 90 % of control and the T/C under setting [8] is 81 % of control.
On to `CC(C)CCCCCCCCCCCCC(=O)NCC(=O)NC1C(C)OC(Nc2ncnc3nc[nH]c23)C(O)C1O` (configuration not stated), for which the T/C was 31 % of control and 33 % of control (dose: 4.0 mg/kg/injection, schedule: Q01DX010 (sc), vehicle: distilled water + Tween-80); 24 % of control (dose: 8.0 mg/kg/injection, schedule: Q01DX010 (sc), vehicle: distilled water + Tween-80); 28 % of control (dose: 32.0 mg/kg/injection, schedule: Q01DX010 (sc), vehicle: distilled water + Tween-80).
On to `O=[Te]=O`, for which the T/C (dose: 12.5 mg/kg/injection, schedule: Q04DX003 (sc), vehicle: suspension in saline) is 150 % of control.
`C=CCOCC1CO1` (configuration not stated): the T/C reads like this: (dose: 100.0 mg/kg/injection, schedule: Q01DX010 (sc), vehicle: saline) 87 % of control; under setting [9], 104 % of control; (dose: 400.0 mg/kg/injection, schedule: Q01DX010 (sc), vehicle: saline) 69 % of control.
On to `O=C(CCCN1CCC(O)(c2cccc(C(F)(F)F)c2)CC1)c1ccc(F)cc1`, for which the T/C (dose: 6.25 mg/kg/injection, schedule: Q01DX010 (sc), vehicle: Klucel (hydroxypropylcellulose) (HPC)) was 52 % of control; the T/C under setting [10] is 96 % of control; the T/C under setting [11] was 60 % of control; the T/C (dose: 50.0 mg/kg/injection, schedule: Q01DX010 (sc), vehicle: Klucel (hydroxypropylcellulose) (HPC)) was 45 % of control and 54 % of control.
`C1OC1C1CO1` (configuration not stated): the T/C by setting is: (dose: 12.5 mg/kg/injection, schedule: Q01DX010 (sc), vehicle: saline) 106 % of control; (dose: 25.0 mg/kg/injection, schedule: Q01DX010 (sc), vehicle: saline) 80 % of control; under setting [12], 66 % of control.
As to `CCN=C=NCCCN(C)C`, the T/C reads like this: under setting [13], 99 % of control; under setting [14], 102 % of control; under setting [15], 84 % of control.
On to `OCCN1CCN(CC/C=C2/c3ccccc3Sc3ccc(C(F)(F)F)cc32)CC1`, for which the T/C is 54 % of control (dose: 10.0 mg/kg/injection, schedule: Q01DX010 (sc), vehicle: saline); 45 % of control (dose: 20.0 mg/kg/injection, schedule: Q01DX010 (sc), vehicle: saline); 29 % of control (dose: 40.0 mg/kg/injection, schedule: Q01DX010 (sc), vehicle: saline).
For the molecule `CS(=O)(=O)OCCN(CCOS(C)(=O)=O)c1ccc(C=Nc2ccc(-c3csc(COc4ccccc4)n3)cc2)cc1`, the T/C reads like this: under setting [10], 52 % of control; under setting [11], 70 % of control; (dose: 100.0 mg/kg/injection, schedule: Q01DX010 (sc), vehicle: Klucel (hydroxypropylcellulose) (HPC)) 106 % of control.
On to `CC(=O)Oc1c(C)[nH]ccc1=O`, for which the T/C runs as follows: under setting [16], 73 % of control; under setting [17], 65 % of control.
For `Cc1ccccc1N(CC1CO1)CC1CO1` (configuration not stated), the T/C runs as follows: (dose: 50.0 mg/kg/injection, schedule: Q01DX010 (sc), vehicle: suspension in saline) 33 % of control; (dose: 100.0 mg/kg/injection, schedule: Q01DX010 (sc), vehicle: suspension in saline) 22 % of control; (dose: 200.0 mg/kg/injection, schedule: Q01DX010 (sc), vehicle: suspension in saline) 104 % of control; (dose: 400.0 mg/kg/injection, schedule: Q01DX010 (sc), vehicle: suspension in saline) 59 % of control.
For the molecule `CCC[P+](c1ccccc1)(c1ccccc1)c1ccccc1`, the T/C runs as follows: (dose: 37.5 mg/kg/injection, schedule: Q04DX003 (sc), vehicle: saline with Tween-80) 83 % of control; (dose: 75.0 mg/kg/injection, schedule: Q04DX003 (sc), vehicle: saline with Tween-80) 79 % of control; under setting [18], 79 % of control.
On to `CN(N=O)C(N)=O`, for which the T/C was -64 % of control (dose: 12.5 mg/kg/injection, schedule: Q01DX010 (sc), vehicle: saline with Tween-80); 19 % of control (dose: 12.5 mg/kg/injection, schedule: Q04DX003 (sc), vehicle: saline); -69 % of control (dose: 25.0 mg/kg/injection, schedule: Q01DX010 (sc), vehicle: saline with Tween-80); 7 % of control under setting [13]; 12 % of control under setting [14]; 1 % of control under setting [15].
On to `COc1ccc(-c2cc(C(=O)Nc3cc(C(F)(F)F)cc(C(F)(F)F)c3)c3ccccc3n2)cc1`, for which the T/C is 75 % of control (dose: 150.0 mg/kg/injection, schedule: Q04DX003 (ip), vehicle: DMSO); 104 % of control (dose: 300.0 mg/kg/injection, schedule: Q04DX003 (ip), vehicle: DMSO); 68 % of control (dose: 600.0 mg/kg/injection, schedule: Q04DX003 (ip), vehicle: DMSO).
As to `O=C1CC2(C(=O)N1CN1CCCCC1)c1ccccc1-c1ccccc12`, the T/C is 224 % of control (dose: 200.0 mg/kg/injection, schedule: Q04DX003 (sc), vehicle: Klucel (hydroxypropylcellulose) (HPC)) and 170 % of control (dose: 400.0 mg/kg/injection, schedule: Q04DX003 (sc), vehicle: Klucel (hydroxypropylcellulose) (HPC)).
In the case of `NC(C/[N+]([O-])=N/O)C(=O)O` (configuration not stated), under setting [12], the T/C is 47 % of control.
Turning to `CCN(CC)CCC(=O)c1ccccc1`, the T/C under setting [18] was 81 % of control.
With `S=c1[nH]cc2cnccn12`, the T/C is 151 % of control under setting [1], 83 % of control under setting [3] and 94 % of control under setting [4].
In the case of `CC(=O)Oc1ccc[nH]c1=O`, the T/C is 87 % of control (dose: 400.0 mg/kg/injection, schedule: Q04DX003 (sc), vehicle: saline with Tween-80) and 91 % of control (dose: 800.0 mg/kg/injection, schedule: Q04DX003 (sc), vehicle: saline with Tween-80).
As for `C=C(C)C(=O)OC1C/C(CO)=C\C(O)C/C(C)=C/C2OC(=O)C(=C)C21` (configuration not stated), the T/C (dose: 20.0 mg/kg/injection, schedule: Q04DX003 (sc), vehicle: saline + alcohol) is 96 % of control; the T/C (dose: 40.0 mg/kg/injection, schedule: Q04DX003 (sc), vehicle: saline + alcohol) is 119 % of control; the T/C (dose: 80.0 mg/kg/injection, schedule: Q04DX003 (sc), vehicle: saline + alcohol) is 104 % of control; the T/C (dose: 160.0 mg/kg/injection, schedule: Q04DX003 (sc), vehicle: saline + alcohol) is 107 % of control.
Consider `O=C1NC(O)c2ccccc2O1` (configuration not stated), for which the T/C under setting [16] is 102 % of control; the T/C under setting [17] was 79 % of control; the T/C (dose: 1200.0 mg/kg/injection, schedule: Q04DX003 (sc), vehicle: suspension in saline) was 63 % of control; the T/C (dose: 2400.0 mg/kg/injection, schedule: Q04DX003 (sc), vehicle: suspension in saline) is 86 % of control.
For `O=NN(CCF)C(=O)NC1CCCCC1`, the T/C runs as follows: (dose: 6.25 mg/kg/injection, schedule: Q04DX003 (sc), vehicle: Klucel (hydroxypropylcellulose) (HPC)) 66 % of control; (dose: 12.5 mg/kg/injection, schedule: Q04DX003 (sc), vehicle: Klucel (hydroxypropylcellulose) (HPC)) 39 % of control.
Consider `Cc1cc(SCC(=O)c2ccc(Br)cc2)cc(C)[o+]1`, for which the T/C runs as follows: under setting [12], 111 % of control; under setting [9], 116 % of control.
For `COC1=C(OC)C(=O)C(SC/C=C(\C)CCCC(C)CCCC(C)CCCC(C)C)=CC1=O` (configuration not stated), the T/C is 91 % of control under setting [2], 40 % of control under setting [3] and 55 % of control under setting [4].
As for `CCCCCC(=O)O[C@]1(C(C)=O)CC[C@H]2[C@@H]3CCC4=CC(=O)CC[C@]4(C)[C@H]3CC[C@@]21C`, the T/C is, setting by setting: under setting [5], 91 % of control; under setting [6], 112 % of control; under setting [7], 103 % of control; under setting [8], 84 % of control.

These data come from PubChem BioAssay AID264 (DTP/NCI, 2004).
